Measurements taken from ChEMBL document CHEMBL1201862, “PubChem BioAssay data set” (2004).
Calls of active or inactive are those of the source.

Key:
[1] = Counterscreen for IDE inhibitors: Luminescence-based cell-based high throughput dose response assay to identify compounds that are cytotoxic to HEK cells. [Related pubchem assays: 434962 (Primary screen (IDE inhibitors in singlicate)), 449730 (Counterscreen (Cytotoxicity in triplicate)), 435028 (Confirmation (IDE inhibitors in triplicate)) …; assay type: functional; settings: HEK293
Insulin-degrading enzyme = molecular target: T1, Insulin-degrading enzyme (Homo sapiens, UniProt P14735); experiment: Dose Response: Fluorescence polarization-based cell-based high throughput dose response assay for inhibitors of insulin-degrading enzyme (IDE). [Related pubchem assays: 434962 (Primary screen (IDE inhibitors in singlicate)), 449730 (Counterscreen (Cytotoxicity in triplicate)), 435028 (Confirmation (IDE inhibitors in triplicate)), 434984 (Summary …; assay type: functional
T1 sequence (P14735 whole entry): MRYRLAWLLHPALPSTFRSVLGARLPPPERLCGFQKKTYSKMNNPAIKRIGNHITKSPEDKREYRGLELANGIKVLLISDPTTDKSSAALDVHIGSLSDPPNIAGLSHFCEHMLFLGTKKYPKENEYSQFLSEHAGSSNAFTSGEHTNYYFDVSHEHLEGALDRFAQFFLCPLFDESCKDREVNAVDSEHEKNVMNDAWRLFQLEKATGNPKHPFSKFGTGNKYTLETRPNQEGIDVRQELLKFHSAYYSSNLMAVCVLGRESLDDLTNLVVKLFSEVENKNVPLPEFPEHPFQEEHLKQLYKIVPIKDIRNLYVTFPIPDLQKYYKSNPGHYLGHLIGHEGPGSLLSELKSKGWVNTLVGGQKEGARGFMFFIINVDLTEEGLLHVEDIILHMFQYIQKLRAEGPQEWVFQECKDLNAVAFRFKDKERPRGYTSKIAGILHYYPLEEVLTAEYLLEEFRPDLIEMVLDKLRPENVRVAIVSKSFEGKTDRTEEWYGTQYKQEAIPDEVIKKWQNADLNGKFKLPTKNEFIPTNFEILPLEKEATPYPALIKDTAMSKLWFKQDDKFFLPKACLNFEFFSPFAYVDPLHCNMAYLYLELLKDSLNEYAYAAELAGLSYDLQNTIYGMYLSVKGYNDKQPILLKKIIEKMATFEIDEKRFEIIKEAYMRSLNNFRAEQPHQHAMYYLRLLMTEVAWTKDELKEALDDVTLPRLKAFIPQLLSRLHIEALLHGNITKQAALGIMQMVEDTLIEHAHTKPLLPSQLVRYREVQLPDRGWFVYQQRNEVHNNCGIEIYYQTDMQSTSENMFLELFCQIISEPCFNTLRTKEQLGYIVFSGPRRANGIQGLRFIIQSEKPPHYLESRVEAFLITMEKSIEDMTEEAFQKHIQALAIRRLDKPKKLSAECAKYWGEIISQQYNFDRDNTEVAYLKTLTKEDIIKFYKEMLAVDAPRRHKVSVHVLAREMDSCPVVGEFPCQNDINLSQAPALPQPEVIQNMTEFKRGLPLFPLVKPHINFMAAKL

Vero [2] = experiment: cells; assay type: functional, cell-based; settings: Chlorocebus sabaeus
[3] = luciferase reporter signal reduction – luminescence, H4-C neuroglioblastoma cells, dose response (AID 2458); assay type: functional, cell-based;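 note: H4 neuroglioblastoma cells stably carrying a luciferase reporter gene fusion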
[4] = Luminescence Cell-Based Dose Response HTS to Identify Inhibitors of 5'UTR Stem-Loop Driven Prion Protein mRNA Translation in H4 Neuroglioblastoma Cells. [Related pubchem assays: 1827 (Project Summary), 1813 (Primary HTS)]; assay type: functional
[5] = Luminescence Cell-Based Dose Confirmation HTS to Identify Inhibitors of Platelet Dense Granule Release. [Related pubchem assays: 1663 (Primary HTS), 1678 (Summary of Project)]; assay type: functional
[6] = molecular target: T2, Heat shock factor protein 1 (Mus musculus, UniProt P38532); experiment: inhibition of MG132-induced HSE-luciferase signal, confirmation, cell-based, NIH3T3, luminescence, dose retest (AID 2382); assay type: functional;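 note: NIH3T3 fibroblasts with HSF1-driven luciferase reporter stressed by proteasome inhibitor MG132; luminescence from HSF1-driven luciferase expression after 8 hours of MG132 stress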
T2 sequence (P38532 whole entry): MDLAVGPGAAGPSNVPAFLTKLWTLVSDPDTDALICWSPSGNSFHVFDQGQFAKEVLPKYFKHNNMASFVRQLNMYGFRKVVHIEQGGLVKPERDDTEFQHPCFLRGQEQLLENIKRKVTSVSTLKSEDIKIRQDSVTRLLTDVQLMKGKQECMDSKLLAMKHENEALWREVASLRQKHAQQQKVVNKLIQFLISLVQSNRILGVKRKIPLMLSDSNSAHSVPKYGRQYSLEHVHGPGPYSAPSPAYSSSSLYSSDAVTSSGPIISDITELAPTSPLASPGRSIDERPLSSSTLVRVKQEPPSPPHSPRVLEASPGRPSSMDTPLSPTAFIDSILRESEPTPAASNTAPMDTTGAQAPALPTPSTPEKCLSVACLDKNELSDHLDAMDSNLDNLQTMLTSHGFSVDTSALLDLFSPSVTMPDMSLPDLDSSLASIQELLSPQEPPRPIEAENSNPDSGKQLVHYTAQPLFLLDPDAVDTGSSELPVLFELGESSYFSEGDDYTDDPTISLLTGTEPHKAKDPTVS

[7] = Shn3 3'UTR reporter inhibitors, dose response, cell-based, Clone20 osteoblasts, firefly luciferase, cherry-picked (AID 624132); assay type: functional;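 note: firefly luciferase luminescence from reporter carrying the Shn3 3'UTR in osteoblasts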
[8] = HepG2 cell cytotoxicity, dose response, cytotoxicity control for Shn3 inhibitor project, CellTiter-Glo, cherry-picked (AID 624134); assay type: functional, cell-based
Vero [9] = experiment: cells; assay type: functional; settings: Chlorocebus sabaeus
cells = assay type: functional, cell-based
[10] = inhibitors of SNCA 5'UTR-driven translation, confirmation, luminescence, H4 neuroglioblastoma cells, dose confirmation (AID 2454); assay type: functional, cell-based;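 note: H4 neuroglioblastoma cells carrying an alpha-synuclein 5'UTR luciferase reporter; potency for inhibition of the luciferase signal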
[11] = Luminescence-based counterscreen assay for KLF5 inhibitors: dose response cell-based high throughput screening assay to identify cytotoxic compounds using the IEC-6 intestinal epithelial cell line. [Related pubchem assays: 1700 (Primary screen.), 1834 (Confirmation screen.), 1858 (Summary AID.), 1905 (Counterscreen.)]; assay type: functional
[12] = inhibitors of SNCA 5'UTR-driven reporter translation, confirmation, H4 neuroglioma cells, luminescence (AID 1988); assay type: functional, cell-based
[13] = molecular target: Luciferin 4-monooxygenase (Photinus pyralis, UniProt P08659); experiment: firefly luciferase enzyme inhibitors, dose response, biochemical, luminescence (AID 1891)
[14] = inhibitors of firefly luciferase expression or activity, dose response, H4 neuroglioma cells, luminescence (AID 1990); assay type: functional, cell-based
Bcl-2-like protein 10 = molecular target: T3, Bcl-2-like protein 10 (Homo sapiens, UniProt Q9HD36); experiment: Biochemical TR3 FP assay of Bcl-B inhibitor potency, EC50 (AID 1243); assay type: functional
T3 sequence (Q9HD36 whole entry): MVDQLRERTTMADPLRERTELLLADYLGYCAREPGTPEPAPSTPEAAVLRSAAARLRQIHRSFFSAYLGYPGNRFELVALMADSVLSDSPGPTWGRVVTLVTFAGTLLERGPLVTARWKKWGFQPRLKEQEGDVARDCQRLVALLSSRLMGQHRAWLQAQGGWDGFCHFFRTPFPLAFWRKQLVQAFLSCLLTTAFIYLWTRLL

Aminopeptidase N = molecular target: T4, Aminopeptidase N (Plasmodium falciparum FcB1/Columbia, UniProt O96935); experiment: P. falciparum M1AAP inhibitors, biochemical, fluorogenic H-Leu-NHMec substrate, 1536-well (AID 1445); design: species or system Plasmodium falciparum 3D7, 3D7
T4 sequence (O96935 whole entry): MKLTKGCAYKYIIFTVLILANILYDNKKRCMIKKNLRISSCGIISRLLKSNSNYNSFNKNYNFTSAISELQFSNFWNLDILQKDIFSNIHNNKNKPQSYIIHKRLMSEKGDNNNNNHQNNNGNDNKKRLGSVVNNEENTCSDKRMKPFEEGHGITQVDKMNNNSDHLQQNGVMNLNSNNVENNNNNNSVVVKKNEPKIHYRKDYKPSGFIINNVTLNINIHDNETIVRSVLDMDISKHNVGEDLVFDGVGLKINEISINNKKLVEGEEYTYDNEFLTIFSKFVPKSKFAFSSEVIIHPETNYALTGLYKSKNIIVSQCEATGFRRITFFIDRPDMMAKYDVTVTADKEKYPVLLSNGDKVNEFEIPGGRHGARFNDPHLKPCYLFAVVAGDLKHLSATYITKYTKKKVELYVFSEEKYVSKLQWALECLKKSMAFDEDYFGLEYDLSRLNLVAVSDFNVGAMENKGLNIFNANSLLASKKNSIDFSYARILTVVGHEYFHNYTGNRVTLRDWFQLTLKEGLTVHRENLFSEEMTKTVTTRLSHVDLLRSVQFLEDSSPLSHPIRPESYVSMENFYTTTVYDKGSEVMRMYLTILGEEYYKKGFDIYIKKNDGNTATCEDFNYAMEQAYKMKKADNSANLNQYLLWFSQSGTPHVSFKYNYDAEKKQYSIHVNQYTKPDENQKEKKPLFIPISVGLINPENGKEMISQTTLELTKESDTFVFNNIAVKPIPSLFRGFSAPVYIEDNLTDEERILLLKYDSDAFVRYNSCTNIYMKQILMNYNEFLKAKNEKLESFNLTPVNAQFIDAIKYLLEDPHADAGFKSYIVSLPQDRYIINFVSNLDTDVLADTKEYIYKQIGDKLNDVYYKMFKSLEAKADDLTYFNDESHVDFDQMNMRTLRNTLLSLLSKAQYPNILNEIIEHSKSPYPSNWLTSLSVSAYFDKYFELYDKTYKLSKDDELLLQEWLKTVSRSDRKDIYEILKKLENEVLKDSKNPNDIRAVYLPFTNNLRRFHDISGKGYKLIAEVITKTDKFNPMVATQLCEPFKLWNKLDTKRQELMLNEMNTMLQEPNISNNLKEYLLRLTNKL

[15] = inhibitors of Bluetongue virus cytopathic effect, confirmation, arbovirus, BSR cells (AID 1250); assay type: functional;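 note: protection from viral cytopathic effect measured as cell viability by ATP luminescence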
[16] = molecular target: Lysosomal acid glucosylceramidase (Homo sapiens, UniProt P04062); experiment: Dose response cell-based high throughput screening assay to identify enhancers of beta-glucosidase activity. [Related pubchem assays: 784 ]; assay type: functional
Lysosomal acid glucosylceramidase, sequence (P04062 whole entry): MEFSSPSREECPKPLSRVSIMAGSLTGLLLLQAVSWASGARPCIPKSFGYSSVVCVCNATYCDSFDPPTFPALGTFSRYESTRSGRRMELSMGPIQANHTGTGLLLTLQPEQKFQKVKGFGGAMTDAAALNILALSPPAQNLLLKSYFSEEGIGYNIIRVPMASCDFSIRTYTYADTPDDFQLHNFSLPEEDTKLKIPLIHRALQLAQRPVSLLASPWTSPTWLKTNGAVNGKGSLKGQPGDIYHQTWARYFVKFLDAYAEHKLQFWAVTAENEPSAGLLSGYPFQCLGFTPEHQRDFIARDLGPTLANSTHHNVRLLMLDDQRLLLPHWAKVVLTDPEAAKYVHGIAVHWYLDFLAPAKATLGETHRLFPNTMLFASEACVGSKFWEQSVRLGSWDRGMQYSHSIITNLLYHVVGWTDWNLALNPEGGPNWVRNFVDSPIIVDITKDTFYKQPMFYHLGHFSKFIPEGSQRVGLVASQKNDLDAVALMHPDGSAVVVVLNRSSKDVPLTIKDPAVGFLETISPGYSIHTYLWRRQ

Luciferin 4-monooxygenase, sequence (P08659 whole entry): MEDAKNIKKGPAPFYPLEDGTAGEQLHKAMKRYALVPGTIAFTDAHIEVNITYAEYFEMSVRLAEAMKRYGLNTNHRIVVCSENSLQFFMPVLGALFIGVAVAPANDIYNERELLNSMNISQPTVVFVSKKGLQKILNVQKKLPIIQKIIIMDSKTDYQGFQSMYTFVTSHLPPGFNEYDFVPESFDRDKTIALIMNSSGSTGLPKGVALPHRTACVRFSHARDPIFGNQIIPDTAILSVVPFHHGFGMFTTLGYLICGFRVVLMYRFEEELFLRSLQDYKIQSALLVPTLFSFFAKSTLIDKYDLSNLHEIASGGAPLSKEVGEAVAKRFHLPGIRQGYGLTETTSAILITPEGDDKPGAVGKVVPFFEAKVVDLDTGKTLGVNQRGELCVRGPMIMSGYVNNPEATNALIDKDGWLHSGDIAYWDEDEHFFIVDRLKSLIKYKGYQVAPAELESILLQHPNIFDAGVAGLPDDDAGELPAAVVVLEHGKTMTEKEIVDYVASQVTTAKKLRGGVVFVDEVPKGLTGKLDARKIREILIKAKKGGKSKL

SMILES: Cc1cccc(N2CCN(C(=O)c3cccc(N4C(=O)C5CC=CC(C)C5C4=O)c3)CC2)c1C (stereo not given)
- IC50 [1]: 23.8 µM (not active)
- IC50 (Insulin-degrading enzyme): 4 µM (active)

SMILES: CN1CCN(c2ccc(-c3ccc4ccccc4n3)cc2)CC1
- IC50 (Vero [2]): > 25 µM (active)
- EC50 [3]: 0.134 µM (active)
- EC50 [4]: < 0.1 µM (active)
- EC50 [5]: 1.66 µM (active)
- EC50 [6]: < 0.16 µM (active)
- AC50 [7]: 2.73 µM (active)
- AC50 [8]: 22.6 µM (active)
- CC50 (Vero [9]): > 25 µM (active)
- EC50 (cells): 0.123 µM (active)
- EC50 [10]: 0.039 µM (active)
- IC50 [11]: 26.6 µM (not active)
- EC50 [12]: < 0.1 µM (active)
- EC50 [13]: 0.953 µM (active)
- EC50 [14]: < 0.195 µM (active)

SMILES: C(=N\c1ccc(/N=C/c2ccccn2)cc1)/c1ccccn1
- EC50 (Bcl-2-like protein 10): 4.39 µM (active)

SMILES: O=C(Nc1scc(-c2cccs2)c1C(=O)O)c1cccs1
- IC50 (Aminopeptidase N): 49.2 µM (active)
- IC50 [15]: 24 µM (active)

SMILES: O=C1Nc2ccccc2C(O)(C(=O)NC2CC2)N1c1ccc(Cl)c(Cl)c1 (stereo not given)
- EC50 [16]: > 50 µM (not active)
